Calls of active or inactive are those of the source. The rule behind the calls is not given here.
Test system: rodent carcinogenicity bioassays, tumor incidence
Assay: CCRIS carcinogenicity studies
Outline: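 Archive of carcinogenicity, mutagenicity, tumor promotion and tumor inhibition results drawn from journals, NCI reports and other sources, expert-reviewed; covers 1985-2011 and is no longer updated.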

CCCNN
carcinogen call (Species: MOUSE, Strain/Sex: SWISS/FEMALE, Route: ORAL, Dose: 0, 0.025% SOLUTION IN DRINKING WATER DAILY FOR LIFE FOR AND AVERAGE DAILY INTAKE OF 0, 3.0 MG (STUDY DURATION: 100 WK), Dose: 0, 0.025% SOLUTION IN DRINKING WATER DAILY FOR LIFE FOR AND AVERAGE DAILY INTAKE OF 0, 3.0 MG (STUDY DURATION: 100 WK), Tumor Site: Type of Lesion: LUNG: ADENOMA, LUNG: ADENOMA OR ADENOCARCINOMA): active; positive
carcinogen call (Species: MOUSE, Strain/Sex: SWISS/MALE, Route: ORAL, Dose: 0, 0.025% SOLUTION IN DRINKING WATER DAILY FOR LIFE FOR AN AVERAGE DAILY INTAKE OF 0, 2.9 MG (STUDY DURATION: 100 WK), Dose: 0, 0.025% SOLUTION IN DRINKING WATER DAILY FOR LIFE FOR AN AVERAGE DAILY INTAKE OF 0, 2.9 MG (STUDY DURATION: 100 WK), Tumor Site: Type of Lesion: LUNG: ADENOMA, LUNG: ADENOMA OR ADENOCARCINOMA): active; positive

CN(C)c1ccc(C(=C2C=CC(=[N+](C)C)C=C2)c2ccccc2)cc1
carcinogen call (Species: MOUSE, Strain/Sex: B6C3F1/FEMALE, Route: ORAL (DIET), Dose: 0, 100, 225, 450 PPM IN DIET FOR 2 YRS, Dose: 0, 100, 225, 450 PPM IN DIET FOR 2 YRS): inactive; negative
carcinogen call (Species: RAT, Strain/Sex: F344/N/FEMALE, Route: ORAL (DIET), Dose: 0, 100, 300, 600 PPM IN DIET FOR 2 YRS, Dose: 0, 100, 300, 600 PPM IN DIET FOR 2 YRS, Tumor Site: Type of Lesion: THYROID: FOLLICULAR CELL ADENOMA OR CARCINOMA, LIVER: HEPATOCELLULAR ADENOMA, MAMMARY GLAND: CARCINOMA, Tumor Site: Type of Lesion: THYROID: FOLLICULAR CELL ADENOMA OR CARCINOMA, LIVER: HEPATOCELLULAR ADENOMA, MAMMARY GLAND: CARCINOMA): equivocal; none of the tumor incidences reached statistical significance; in som

CC1(C)C(C(=O)OC(C#N)c2cccc(Oc3ccccc3)c2)C1(C)C (stereo unspecified)
carcinogen call (Species: Mouse, Strain/Sex: CD-1/Female (52/Group), Dose: 0, 40, 150, 600 ppm of 91.4 - 92.5 % fenpropathrin in diet for 2 yr, study duration 2 yr, Dose: 0, 40, 150, 600 ppm of 91.4 - 92.5 % fenpropathrin in diet for 2 yr, study duration 2 yr): inactive; negative
carcinogen call (Species: Mouse, Strain/Sex: CD-1/Male (52/Group), Dose: 0, 40, 150, 600 ppm of 91.4 - 92.5 % fenpropathrin in diet for 2 yr, study duration 2 yr, Dose: 0, 40, 150, 600 ppm of 91.4 - 92.5 % fenpropathrin in diet for 2 yr, study duration 2 yr): inactive; negative
carcinogen call (Species: Rat, Strain/Sex: CD/Female (50/Group), Route: Oral, Dose: 0, 50, 150, 450 ppm of 91.4-92.5% fenpropathrin in diet for >52 wk, study duration up to 2 yr, Dose: 0, 50, 150, 450 ppm of 91.4-92.5% fenpropathrin in diet for >52 wk, study duration up to 2 yr): inactive; negative
carcinogen call (Species: Rat, Strain/Sex: CD/Male (50/Group), Route: Oral, Dose: 0, 50, 150, 450 ppm of 91.4-92.5% fenpropathrin in diet for >52 wk, study duration up to 2 yr, Dose: 0, 50, 150, 450 ppm of 91.4-92.5% fenpropathrin in diet for >52 wk, study duration up to 2 yr): inactive; negative

COC(=O)C1=C(C)NC(C)=C(C(=O)OCCc2ccc(N3CCN(C(c4ccccc4)c4ccccc4)CC3)cc2)C1c1cccc([N+](=O)[O-])c1 (stereo unspecified)
carcinogen call (Species: MOUSE, Strain/Sex: B6C3F1/FEMALE, Route: ORAL, Dose: 0, 30, 90, 300 PPM IN DIET FOR 18 MO (STUDY DURATION: 18 MO), Dose: 0, 30, 90, 300 PPM IN DIET FOR 18 MO (STUDY DURATION: 18 MO)): inactive; negative
carcinogen call (Species: MOUSE, Strain/Sex: B6C3F1/MALE, Route: ORAL, Dose: 0, 30, 90, 300 PPM IN DIET FOR 18 MO (STUDY DURATION: 18 MO), Dose: 0, 30, 90, 300 PPM IN DIET FOR 18 MO (STUDY DURATION: 18 MO)): inactive; negative
carcinogen call (Species: RAT, Strain/Sex: F344/FEMALE, Route: ORAL, Dose: 0, 30, 90, 300 PPM IN DIET FOR 24 MO (STUDY DURATION: 24 MO), Dose: 0, 30, 90, 300 PPM IN DIET FOR 24 MO (STUDY DURATION: 24 MO)): inactive; negative
carcinogen call (Species: RAT, Strain/Sex: F344/MALE, Route: ORAL, Dose: 0, 30, 90, 300 PPM IN DIET FOR 24 MO (STUDY DURATION: 24 MO), Dose: 0, 30, 90, 300 PPM IN DIET FOR 24 MO (STUDY DURATION: 24 MO)): inactive; negative

[Ni]=[Te]
carcinogen call (Species: RAT, Strain/Sex: F344/MALE, Route: INTRAMUSCULAR, Tumor Site: Type of Lesion: INJECTION SITE: SARCOMA): active; positive

O=C1c2ccccc2CN2C(=O)c3ccccc3CN12
carcinogen call (Species: MOUSE, Strain/Sex: BALB/FEMALE, Route: ORAL, Dose: 0, 300, 600, 1200 PPM IN DIET FOR 80 WK (STUDY DURATION: 120 WK), Dose: 0, 300, 600, 1200 PPM IN DIET FOR 80 WK (STUDY DURATION: 120 WK), Tumor Site: Type of Lesion: LIVER: HEPATOCELLULAR ADENOMA OR CARCINOMA, ANGIOSARCOMA): active; positive
carcinogen call (Species: MOUSE, Strain/Sex: BALB/MALE, Route: ORAL, Dose: 0, 300, 600, 1200 PPM IN DIET FOR 80 WK (STUDY DURATION: 120 WK), Dose: 0, 300, 600, 1200 PPM IN DIET FOR 80 WK (STUDY DURATION: 120 WK), Tumor Site: Type of Lesion: LIVER: ANGIOMA, ANGIOSARCOMA): active; positive

C=CCc1ccc2c(c1)OCO2
carcinogen call (Species: MOUSE, Strain/Sex: B6AKF1/MALE,FEMALE, Route: GAVAGE, ORAL, Dose: 464 MG/KG FROM D 7-28 OF LIFE THEN 1112 MG/KG IN DIET, Tumor Site: Type of Lesion: LIVER: HEPATOCELLULAR TUMOR): active; positive
carcinogen call (Species: MOUSE, Strain/Sex: B6C3F1/MALE,FEMALE, Route: GAVAGE, ORAL, Dose: 464 MG/KG FROM D 7-28 OF LIFE THEN 1112 MG/KG IN DIET, Tumor Site: Type of Lesion: LIVER: HEPATOCELLULAR TUMOR): active; positive
carcinogen call (Species: MOUSE, Strain/Sex: BALB/MALE, Route: ORAL, Dose: 0, 4000 PPM IN DIET FOR 52 WK (STUDY DURATION: 75 WK), Tumor Site: Type of Lesion: LIVER: HEPATOCELLULAR CARCINOMA, HEPATOCELLULAR ADENOMA): active; positive
carcinogen call (Species: MOUSE, Strain/Sex: CD-1/MALE, Route: ORAL, Dose: 4000, 5000 MG/KG IN DIET FOR 13 MO, Tumor Site: Type of Lesion: LIVER: HEPATOCELLULAR CARCINOMA): active; positive
carcinogen call (Species: MOUSE, Strain/Sex: CD-1/MALE, Route: SUBCUTANEOUS, Dose: 0.66, 6.6 MG (TOTAL DOSES) IN TRICAPRYLIN IN 3 WK, Tumor Site: Type of Lesion: LIVER): active; positive
carcinogen call (Species: MOUSE, Strain/Sex: SWISS/FEMALE, Route: SUBCUTANEOUS, Dose: 0.66, 6.6 MG (TOTAL DOSES) IN TRICAPRYLIN IN 3 WK, Tumor Site: Type of Lesion: LUNG: ADENOMA, ADENOCARCINOMA): active; positive
carcinogen call (Species: MOUSE, Strain/Sex: SWISS/MALE, Route: SUBCUTANEOUS, Dose: 0.66, 6.6 MG (TOTAL DOSES) IN TRICAPRYLIN IN 3 WK, Tumor Site: Type of Lesion: LIVER: HEPATOMA): active; positive
carcinogen call (Species: RAT, Strain/Sex: OSBORNE-MENDEL/MALE,FEMALE, Route: ORAL, Dose: 100, 500, 1000, 5000 MG/KG IN DIET FOR 2 YR, Dose: 100, 500, 1000, 5000 MG/KG IN DIET FOR 2 YR, Tumor Site: Type of Lesion: LIVER: HEPATOCELLULAR CARCINOMA, CHOLANGIOCARCINOMA): active; positive

CC(=O)CNCC(O)C(O)N=O (stereo unspecified)
carcinogen call (Species: RAT, Strain/Sex: F344/FEMALE, Route: ORAL, Dose: 0, 15, 60 MG/L DRINKING WATER 5 D/WK FOR 31, 24 WK (TOTAL DOSE 47; 144 MG) (STUDY DURATION: LIFESPAN), Dose: 0, 15, 60 MG/L DRINKING WATER 5 D/WK FOR 31, 24 WK (TOTAL DOSE 47; 144 MG) (STUDY DURATION: LIFESPAN), Tumor Site: Type of Lesion: ESOPHAGUS: CARCINOMA, PAPILLOMA, FORESTOMACH: CARCINOMA, PAPILLOMA, LUNG: TUMOR, TONGUE: CARCINOMA, PAPILLOMA, Tumor Site: Type of Lesion: ESOPHAGUS: CARCINOMA, PAPILLOMA, FORESTOMACH: CARCINOMA, PAPILLOMA, LUNG: TUMOR, TONGUE: CARCINOMA, PAPILLOMA): active; positive

C=C(C)C(N)=O
carcinogen call (Species: MOUSE, Strain/Sex: DDY, Route: INTRAPERITONEAL, Dose: 0, 2.35 MMOL/KG 1/2 D FOR 5 DOSES (STUDY DURATION: 6 MO), Tumor Site: Type of Lesion: LUNG: ADENOMA): active; positive
carcinogen call (Species: MOUSE, Strain/Sex: DDY, Route: INTRAPERITONEAL, Dose: 0, 2.35 MMOL/KG 1/D FOR 5 D (STUDY DURATION: 6 MO), Tumor Site: Type of Lesion: LUNG: ADENOMA): active; positive

Reference: PubChem BioAssay AID1259411 (Chemical Carcinogenesis Research Information System (CCRIS), 2018)
